Assay results as given in patent publication US20250205300A1, “PLANT-BASED COMPOSITIONS AND METHODS FOR HORMONE SIGNALING, BLOOD GLUCOSE CONTROL, APPETITE CONTROL, AND WEIGHT MANAGEMENT” (Alpine Biotech, LLC, priority 2023, published 2025).

Legend:
[1] = test system: preclinical diabetes model; assay: Plasma GLP-1 levels in preclinical diabetes model (FIG. 2); format: in vivo
Human NCI-H716 cells = assay: Secretion of GLP-1 in Human NCI-H716 cells (FIG. 1); format: cell-based
Source text: FIG. 1 is a graph illustrating the effects of compositions in Human NCI-H716 cells according to an implementation.

| Compound | plasma GLP-1 levels [1] | secretion of GLP-1 (Human NCI-H716 cells) |
| --- | --- | --- |
| COc1ccc2cc3[n+](cc2c1OC)CCc1cc2c(cc1-3)OCO2 [Berberine] | modulate plasmas GLP-1 levels | modulate the secretion of GLP-1 to various degrees |
| O=C(O[C@@H]1Cc2c(O)cc(O)cc2O[C@@H]1c1cc(O)c(O)c(O)c1)c1cc(O)c(O)c(O)c1 [epigallocatechin gallate] | – | modulate the secretion of GLP-1 to various degrees |
| CC/C=C\C/C=C\C/C=C\CCCCCCCC(=O)O [α-linolenic acid] | modulate plasmas GLP-1 levels | modulate the secretion of GLP-1 to various degrees |
